Results published in PMC5727165, “A switch in nucleotide affinity governs activation of the Src and Tec family kinases” (Scientific Reports, 2017).
Numbering of substitutions follows the chain as printed. Where two headings read alike, the source gives them in different places. Blank lines part the entries; values can stand above or below the molecule they belong to.

Legend:
[1] = biological target: T1, Itk^32K L351A (Homo sapiens, UniProt Q08881, L351A); test: Fluorescence anisotropy binding of Mant-labelled nucleotides
T1 construct: Human Itk^171–620 (Itk^32K); GST (cleaved yes); made in house; host or cells: baculovirus-infected Sf9 insect cells
T1 sequence (Q08881 171-620 L351A): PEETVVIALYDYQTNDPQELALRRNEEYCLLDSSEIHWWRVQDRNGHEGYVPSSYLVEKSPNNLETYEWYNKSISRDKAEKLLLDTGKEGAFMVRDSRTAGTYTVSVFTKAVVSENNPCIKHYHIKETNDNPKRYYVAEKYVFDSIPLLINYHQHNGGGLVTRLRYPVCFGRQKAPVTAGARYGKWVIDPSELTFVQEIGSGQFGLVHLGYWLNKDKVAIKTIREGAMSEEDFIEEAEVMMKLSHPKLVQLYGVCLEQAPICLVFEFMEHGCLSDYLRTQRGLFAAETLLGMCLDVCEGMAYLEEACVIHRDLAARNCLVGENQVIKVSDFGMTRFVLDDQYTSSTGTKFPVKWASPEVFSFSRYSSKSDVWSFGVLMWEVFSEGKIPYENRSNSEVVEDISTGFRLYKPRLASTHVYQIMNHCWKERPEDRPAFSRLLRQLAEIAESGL
Text: (§1) Figure 3 An allosteric switch triggers nucleotide exchange. (a) Hydrophobic stack conservation in Src family kinases. The table illustrates the amino acid identity at each of the three positions in the hydrophobic stack in addition to the invariant tryptophan (Trp260 in Src) for all Src family kinase members. The positions are presented according to their N- to C-terminal order in the primary sequences. Where it was not possible to unambiguously determine the identity of the amino acid contributed by the SH2-kinase variable linker (V3), the residue is denoted by a question mark. (b) Small angle X-ray scattering of Itk^32K L351A (black). The scattering curve for wild type Itk^32K (cyan) is overlaid for comparison. […] (c) Rigid body modelling of Itk^32K L351A and fit to ab initio molecular envelope. Displacement of both the SH3 and SH2 domains is required for a good fit to the experimental scattering curve. (d) Determination of the binding constants of Itk^32K L351A for nucleotides by fluorescence anisotropy. […] (e) Determination of the thermal stabilities and relative binding affinities of non-phosphorylated Src^32KΔC L255A for nucleotides by differential scanning fluorimetry. […] TEXT PRINTED IN THE PICTURE: (d) Mant-ADP: Itk^32K L351A (non-phos) Kd (μM): 21.0 ± 2.1 | (d) Mant-ATP: Itk^32K L351A (non-phos) Kd (μM): 31.7 ± 2.7 | (e) ADP: Src^32KΔC L255A (non-phos) [nuc]1/2 (μM): 310 ± 20; Src^32KΔC L255A (non-phos) Tm^max (°C): 52.9; Src^32KΔC L255A (non-phos) ΔTm^max (°C): + 6.8 | (e) ATP: Src^32KΔC L255A (non-phos) [nuc]1/2 (μM): 100 ± 10; Src^32KΔC L255A (non-phos) Tm^max (°C): 54.2; Src^32KΔC L255A (non-phos) ΔTm^max (°C): + 8.1 | (e) apo: Src^32KΔC L255A (non-phos) Tm^max (°C): 46.1
To establish whether hydrophobic stack disassembly triggers a switch in nucleotide binding of the kinase domain, we measured the binding of both unphosphorylated and activation loop phosphorylated (pY511) Itk^32K L351A to ADP and ATP.
(§2) The binding constants for ADP and AMPPNP were determined for Src and Itk proteins by fluorescence anisotropy, using 2′/3′-Mant-labelled nucleotides (Jena Bioscience). Increasing concentrations of Itk^32K, Itk^L351A or Src^32K were incubated with 40 μM Mant-nucleotide in 30 mM Tris pH 7.5, 200 mM NaCl, 5 mM MgCl2, and 1 mM TCEP. Measurements were made with a Perkin Elmer LS50B fluorimeter (λex = 355 nm, λem = 447 nm) at 20 °C. For each data point 50–60 measurements, each with an integration time of 1 s, were averaged. For competition nucleotide displacement assays, 40–80 μM of protein was incubated with 40 μM Mant-ADP until equilibrium was established. Unlabelled nucleotide was titrated into the reaction and fluorescence anisotropy monitored. The equilibrium inhibition constant for the unlabelled nucleotide was calculated from the fitted curve.

[2] = biological target: T2, Src^32KΔC L255A (Mus musculus, UniProt P05480, L257A); test: Differential scanning fluorimetry (thermal stability vs nucleotide concentration); format: binding
T2 construct: mouse Src^85-523 (Src^32KΔC); GST (cleaved yes); made in house; host or cells: baculovirus-infected Sf9 insect cells
Text: as §1
Due to limiting protein concentrations, we were unable to obtain a binding curve by fluorescence anisotropy, so we instead used thermal stability measurements to investigate its nucleotide-binding properties. Determination of accurate binding constants from thermal stability measurements requires knowledge of the enthalpy of unfolding. However, for a given protein, the enthalpy of unfolding is independent of the ligand being tested, so comparison of the concentrations of nucleotide required for half maximal stabilisation is valid.
Thermal stabilities as a function of nucleotide concentration were measured by differential scanning fluorimetry (DSF). Samples contained 0.1 mg/ml protein in 50 mM Tris pH 7.5, 150 mM NaCl, 1 mM TCEP, and 5 mM MgCl2 with ADP, ATP, or AMPPNP concentrations ranging from 0–16 mM. Samples were measured in triplicate using a BioRad iQ™5 Multicolor Real-Time PCR Detection System. For detection of phosphorylated protein, samples were diluted and 1 ng and 15 ng were loaded to SDS-PAGE for Src and Itk proteins, respectively. Phosphorylation was measured by immunoblot.

[3] = biological target: T3, Src^32K (Mus musculus, UniProt P05480); test: Fluorescence anisotropy binding of Mant-labelled nucleotides; details: direct Mant-nucleotide binding
T3 construct: mouse Src^85-535 (Src^32K); GST (cleaved yes); made in house; host or cells: baculovirus-infected Sf9 insect cells, co-expressed with human Csk
Text: To characterise the nucleotide binding of Itk and Src, we purified recombinant wild type and mutant constructs of Itk and Src containing their respective SH3, SH2, and kinase domains (from here on referred to as Itk^32K, Src^32K, and Src^32KΔC, Fig. 1a). We confirmed the mass and homogeneity of isolated species by high-resolution anion exchange chromatography, intact mass spectrometry, and Western blotting with phospho-specific antibodies (Supplementary Figs 1–3). We performed fluorescence anisotropy measurements using Mant-labelled nucleotides. […] To avoid autophosphorylation during the course of the titration, we used the non-hydrolysable ATP analogue AMPPNP. […] Src^32K bound ADP approximately 6-fold more tightly than AMPPNP (Supplementary Fig. 4d).
Human Itk^171–620 (Itk^32K), mouse Src^85-535 (Src^32K), and mouse Src^85-523 (Src^32KΔC) as well as their respective point mutants were expressed as GST fusions in baculovirus-infected Sf9 insect cells. For the generation of Tyr527-phosphorylated Src^85-535, the protein was co-expressed with human Csk using pFastBac Dual (Invitrogen). Proteins were purified by sequential glutathione-sepharose affinity chromatography, TEV cleavage, high-resolution anion exchange, and size exclusion chromatography in a final buffer of 50 mM Tris, pH 7.5, 200 mM NaCl, 1 mM TCEP, 1% (v/v) glycerol.
as §2

[4] = biological target: T4, Itk^32K (Homo sapiens, UniProt Q08881); test: Competition nucleotide displacement assay (Mant-ADP, fluorescence anisotropy); format: binding
T4 construct: Human Itk^171–620 (Itk^32K); GST (cleaved yes); made in house; host or cells: baculovirus-infected Sf9 insect cells
T4 sequence (Q08881 171-620): T1 sequence (Q08881 171-620 L351A) with A181L
Method: Figure 1 Autoinhibited Itk and Src kinases preferentially bind ADP. (a) Schematic of constructs evaluated in this study. Itk^32K, Src^32K, and Src^32KΔC contain the conserved module of SH3, SH2, and kinase (^32K) domains. Src^32K was truncated by […] to remove its C-terminal tail (inclusive of the Y527 phosphorylation site), generating a construct we refer to as Src^32KΔC (ΔC-tail). (b) Competition nucleotide displacement assay for Itk^32K. 40 μM Itk^32K was incubated with 40 μM Mant-ADP until equilibrium was established. Unlabelled ADP or AMPPNP was titrated into the reaction and fluorescence anisotropy monitored. Comparison of the equilibrium inhibition constants (K i) gives an indication of the relative strength of nucleotide binding. […] (c) Competition nucleotide displacement assay for Src^32K. 40 μM tail-phosphorylated Src^32K (pY527) or doubly phosphorylated Src^32K pY416 (pY527) was incubated with 40 μM Mant-ADP until equilibrium was established. Unlabelled ADP or AMPPNP was titrated into the reaction and fluorescence anisotropy monitored. Solid lines correspond to Src^32K, dashed lines to Src^32K pY416. AMPPNP binds to Src^32K with 20-fold weaker affinity than ADP. […] (d) Omit map showing clear electron density for ADP and a single magnesium ion in the nucleotide-binding pocket of Src. The magnesium is coordinated by Asn391, Asp404, and the α- and β- phosphates of ADP. The β-phosphate is directly coordinated by the guanidinium side chain of Arg388. […]
Since the concentration of ATP in the cell is typically higher than ADP[33],[34], we performed nucleotide competition assays in order to determine which nucleotide is bound in vivo. We measured the concentrations of ADP or AMPPNP required to displace Mant-ADP. […]
The binding constants for ADP and AMPPNP were determined for Src and Itk proteins by fluorescence anisotropy, using 2′/3′-Mant-labelled nucleotides (Jena Bioscience). […] Unlabelled nucleotide was titrated into the reaction and fluorescence anisotropy monitored. The equilibrium inhibition constant for the unlabelled nucleotide was calculated from the fitted curve.

[5] = biological target: T5, Src^32KΔC (Mus musculus, UniProt P05480); test: as above; format: binding; details: 40 μM Src^32KΔC, 40 μM Mant-ADP; read-out: Ki (equilibrium inhibition constant)
T5 construct: mouse Src^85-523 (Src^32KΔC); GST (cleaved yes); made in house; host or cells: baculovirus-infected Sf9 insect cells
Method: Figure 2 Itk adopts a Src-like autoinhibited conformation. (a) Competition nucleotide displacement assay for Src^32KΔC. 40 μM Src^32KΔC was incubated with 40 μM Mant-ADP until equilibrium was established. Unlabelled ADP or AMPPNP was titrated into the reaction and fluorescence anisotropy monitored. […] (b) Small angle X-ray scattering curves for Itk^32K (cyan), Src^32K (magenta), Src^32KΔC (blue), and Src^32K R175L (green). […] (d) Table of physical parameters obtained from the scattering curves for Itk^32K, Src^32K, Src^32KΔC, and Src^32K R175L. (e)Ab initio model of Itk^32K and docking of autoinhibited Src (2SRC.pdb) into the molecular envelope. Two orientations of the envelope are shown for clarity. (f) Ab initio molecular envelope for Src^32KΔC illustrates the fit of the crystal structure of autoinhibited Src. TEXT PRINTED IN THE PICTURE: (a) ADP: Src^32KΔC Ki (mM): 0.03 ± 0.008 | (a) ANP: Src^32KΔC Ki (mM): 0.69 ± 0.140
as §2

[6] = Itk^32K L351A non-phosphorylated, read-out: Kd
[7] = Src^32KΔC L255A non-phosphorylated, DSF

- Kd [1, 6]: 21 ± 2.1 µM
Molecule: Mant-ADP

- Kd [1, 6]: 31.7 ± 2.7 µM
Molecule: Mant-ATP

- Kd ([1]; activation loop-phosphorylated (pTyr511) Itk^32K L351A, read-out: Kd (binding constant)): 37 µM
- additional thermal stability conferred by ATP over ADP ([2]; Src^32KΔC L255A non-phosphorylated): 1.3 °C
- Tm^max [2, 7]: 54.2 °C
- [nuc]1/2 (nucleotide concentration for half maximal stabilisation) [2, 7]: 100 ± 10 µM
Molecule: Nc1ncnc2c1ncn2[C@@H]1O[C@H](COP(=O)(O)OP(=O)(O)OP(=O)(O)O)[C@@H](O)[C@H]1O [ATP]
- relative binding of ATP versus ADP ([2]; Src^32KΔC L255A, from half maximal stabilisation concentrations): approximately three times better than ADP

- fold difference in affinity, ADP tighter than AMPPNP [3]: approximately 6 fold
- Ki ([4]; 40 μM Itk^32K, 40 μM Mant-ADP, read-out: Ki (equilibrium inhibition constant)): 7900 µM
- fold difference in Ki, AMPPNP weaker than ADP ([4]; Itk^32K, displacement of Mant-ADP): ~41 fold
- Ki [5]: 690 ± 140 µM
Molecule: Nc1ncnc2c1ncn2[C@@H]1O[C@H](COP(=O)(O)OP(=O)(O)NP(=O)(O)O)[C@@H](O)[C@H]1O [AMPPNP]
